Assay results from ChEMBL document CHEMBL1135726, “Novel antagonists acting at the P2Y(1) purinergic receptor: synthesis and conformational analysis using potentiometric and nuclear magnetic resonance titration techniques” (J Med Chem, 2002).
Activity calls are given as the source filed them. No cut-off for these calls is given here.

Experiments:
Homo sapiens = species: Homo sapiens; assay: Inhibitory concentration required to inhibit intracellular [Ca2+] rise induced in washed human platelets by 5 uM ADP; assay type: functional
P2Y purinoceptor 1 = P2Y purinoceptor 1 (Homo sapiens, UniProt P47900); assay: pA2 value was evaluated against P2Y purinoceptor 1; details: read-out: pA2 (converted)
[1] = biological target: P2X purinoceptor 1 (Rattus norvegicus) (UniProt P47824); assay: Affinity at P2X purinoceptor 1 (P2X1) and the value is expressed as IC50
[2] = biological target: P2X purinoceptor 2 (Rattus norvegicus) (UniProt P49653); assay: KB value was evaluated at the rat P2X purinoceptor 2 (P2X2); IA menas inactive
[3] = biological target: P2X purinoceptor 4 (Rattus norvegicus) (UniProt P51577); assay: KB value was evaluated at the rat P2X purinoceptor 4 (P2X4); IA menas inactive
P2X purinoceptor 4 (Rattus norvegicus), sequence (P51577 whole entry, looked up): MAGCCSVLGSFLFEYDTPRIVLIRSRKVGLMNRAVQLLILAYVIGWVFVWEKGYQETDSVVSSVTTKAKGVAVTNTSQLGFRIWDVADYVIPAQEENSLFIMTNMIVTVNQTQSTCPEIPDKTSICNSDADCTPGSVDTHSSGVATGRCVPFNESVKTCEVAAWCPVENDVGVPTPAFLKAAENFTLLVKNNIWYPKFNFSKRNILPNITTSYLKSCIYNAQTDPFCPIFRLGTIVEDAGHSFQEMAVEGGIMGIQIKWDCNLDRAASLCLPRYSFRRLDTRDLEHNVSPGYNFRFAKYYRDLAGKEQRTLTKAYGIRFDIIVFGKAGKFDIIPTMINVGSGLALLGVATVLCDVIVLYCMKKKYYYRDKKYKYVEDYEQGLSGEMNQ

P2Y purinoceptor 1, sequence (P47900 whole entry): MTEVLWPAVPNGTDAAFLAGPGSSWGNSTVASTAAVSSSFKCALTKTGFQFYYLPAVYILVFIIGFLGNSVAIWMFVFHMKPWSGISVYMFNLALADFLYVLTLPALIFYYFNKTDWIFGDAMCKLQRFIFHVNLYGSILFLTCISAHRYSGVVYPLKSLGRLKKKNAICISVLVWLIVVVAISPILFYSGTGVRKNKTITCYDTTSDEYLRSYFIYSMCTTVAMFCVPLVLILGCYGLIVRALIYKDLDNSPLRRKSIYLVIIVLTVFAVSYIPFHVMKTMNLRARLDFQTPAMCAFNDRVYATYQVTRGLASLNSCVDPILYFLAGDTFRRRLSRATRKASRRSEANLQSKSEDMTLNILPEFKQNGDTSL
P2X purinoceptor 1 (Rattus norvegicus), sequence (P47824 whole entry, looked up): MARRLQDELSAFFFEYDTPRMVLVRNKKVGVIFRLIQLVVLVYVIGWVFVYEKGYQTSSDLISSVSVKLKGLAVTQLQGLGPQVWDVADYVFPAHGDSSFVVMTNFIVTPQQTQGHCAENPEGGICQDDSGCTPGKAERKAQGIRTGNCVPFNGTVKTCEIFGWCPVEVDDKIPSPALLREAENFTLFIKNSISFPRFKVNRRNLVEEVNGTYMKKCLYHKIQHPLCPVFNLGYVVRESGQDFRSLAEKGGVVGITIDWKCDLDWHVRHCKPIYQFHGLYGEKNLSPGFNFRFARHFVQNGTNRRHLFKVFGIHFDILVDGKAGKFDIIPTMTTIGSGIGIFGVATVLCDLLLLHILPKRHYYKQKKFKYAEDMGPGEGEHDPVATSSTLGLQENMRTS
P2X purinoceptor 2 (Rattus norvegicus), sequence (P49653 whole entry, looked up): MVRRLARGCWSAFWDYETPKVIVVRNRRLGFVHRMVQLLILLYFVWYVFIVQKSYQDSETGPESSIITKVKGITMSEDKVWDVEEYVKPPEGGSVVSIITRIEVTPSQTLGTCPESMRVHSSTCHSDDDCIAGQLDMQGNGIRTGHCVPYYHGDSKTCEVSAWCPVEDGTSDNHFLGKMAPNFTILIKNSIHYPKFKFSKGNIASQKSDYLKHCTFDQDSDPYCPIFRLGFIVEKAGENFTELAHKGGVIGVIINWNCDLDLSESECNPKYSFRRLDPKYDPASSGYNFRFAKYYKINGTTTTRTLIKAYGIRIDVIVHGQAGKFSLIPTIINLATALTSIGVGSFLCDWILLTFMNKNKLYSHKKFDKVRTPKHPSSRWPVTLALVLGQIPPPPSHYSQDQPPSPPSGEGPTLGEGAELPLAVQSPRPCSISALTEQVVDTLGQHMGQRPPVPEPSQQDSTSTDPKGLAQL

Kb (P2Y purinoceptor 1) [nM]	IC50 [1] [nM]	IA [2]	IA [3]	SMILES	Inhibition (Homo sapiens) [µM]
77.6				CNc1nc(C)nc2c1ncn2[C@H]1C[C@H](OP(=O)(O)O)[C@@H](COP(=O)(O)O)O1	100
282	1150	inactive	inactive	CNc1ncnc2c1ncn2[C@H]1C[C@H](OP(=O)(O)O)[C@@H](COP(=O)(O)O)O1	
